# Measured values published in patent US5955500A (G. D. Searle & Co., priority 1997, dated 1999).
# Where “and” joins values, the source holds several entries; their conditions need not be identical. Identical values can stand only once. Counter-ions that a name gives are not always drawn. Like-named read-outs stand apart in the source and are kept apart here.
# Assays:
# [1] = pH 5, individual replicates; listed as 50, hydrochloride
# [2] = tested on: supraventricular tachycardia; conditions: intravenous; cited from earlier work
# canine heart = conditions: for AH time / Heart rate / Mean arterial pressure: mean ± SE, listed as 50/50S
# [3] = 0.1 mg/kg i.v., 0 min, hydrochloride
# [4] = 0.1 mg/kg i.v., 1 min, hydrochloride
# [5] = 0.1 mg/kg i.v., 2 min, hydrochloride
# [6] = 0.1 mg/kg i.v., 3 min, hydrochloride
# [7] = 0.1 mg/kg i.v., 4 min, hydrochloride
# [8] = 0.1 mg/kg i.v., 5 min, hydrochloride
# [9] = 0.2 mg/kg i.v., 0 min, hydrochloride
# [10] = 0.2 mg/kg i.v., 1 min, hydrochloride
# [11] = 0.2 mg/kg i.v., 2 min, hydrochloride
# [12] = 0.2 mg/kg i.v., 3 min, hydrochloride
# [13] = 0.2 mg/kg i.v., 4 min, hydrochloride
# [14] = 0.2 mg/kg i.v., 5 min, hydrochloride
# [15] = 0.4 mg/kg i.v., 0 min, hydrochloride
# [16] = 0.4 mg/kg i.v., 1 min, hydrochloride
# [17] = 0.4 mg/kg i.v., 2 min, hydrochloride
# [18] = 0.4 mg/kg i.v., 3 min, hydrochloride
# [19] = 0.4 mg/kg i.v., 4 min, hydrochloride
# [20] = 0.4 mg/kg i.v., 5 min, hydrochloride
compound,measurement,setting,value
"COc1ccc(CCN(C)CCCC(C#N)(c2ccc(OC)c(OC)c2)C(C)C)cc1OC (racemic) [racemic verapamil, benzeneacetonitrile, α-[3-[[2-(3,4-dimethoxyphenyl)ethyl]methylamino]propyl]-3,4-dimethoxy-α-(1-methylethyl) hydrochloride, reference compound]",Concentration in octanol,[1],6020 ng/mL and 6360 ng/mL and 5830 ng/mL
same,Concentration in water,[1],5050 ng/mL and 4800 ng/mL and 4750 ng/mL
same,"Rapid and reliable control of supraventricular tachycardia, in words",[2],work well
same,AH time,canine heart; [3],97 ± 16 ms
same,Heart rate,canine heart; [3],143 ± 11 beats per min
same,Mean arterial pressure,canine heart; [3],92 ± 4 mmHg
same,AH time,canine heart; [4],107 ± 12 ms
same,Heart rate,canine heart; [4],135 ± 6 beats per min
same,Mean arterial pressure,canine heart; [4],97 ± 4 mmHg
same,AH time,canine heart; [5],105 ± 9 ms
same,Heart rate,canine heart; [5],122 ± 7 beats per min
same,Mean arterial pressure,canine heart; [5],101 ± 5 mmHg
same,AH time,canine heart; [6],106 ± 8 ms
same,Heart rate,canine heart; [6],118 ± 6 beats per min
same,Mean arterial pressure,canine heart; [6],102 ± 5 mmHg
same,AH time,canine heart; [7],104 ± 7 ms
same,Heart rate,canine heart; [7],119 ± 7 beats per min
same,Mean arterial pressure,canine heart; [7],100 ± 4 mmHg
same,AH time,canine heart; [8],104 ± 6 ms
same,Heart rate,canine heart; [8],125 ± 8 beats per min
same,Mean arterial pressure,canine heart; [8],104 ± 4 mmHg
same,AH time,canine heart; [9],96 ± 8 ms
same,Heart rate,canine heart; [9],169 ± 4 beats per min
same,Mean arterial pressure,canine heart; [9],88 ± 5 mmHg
same,AH time,canine heart; [10],117 ± 11 ms
same,Heart rate,canine heart; [10],164 ± 8 beats per min
same,Mean arterial pressure,canine heart; [10],90 ± 3 mmHg
same,AH time,canine heart; [11],112 ± 7 ms
same,Heart rate,canine heart; [11],149 ± 10 beats per min
same,Mean arterial pressure,canine heart; [11],101 ± 4 mmHg
same,AH time,canine heart; [12],118 ± 9 ms
same,Heart rate,canine heart; [12],149 ± 10 beats per min
same,Mean arterial pressure,canine heart; [12],101 ± 6 mmHg
same,AH time,canine heart; [13],117 ± 8 ms
same,Heart rate,canine heart; [13],147 ± 12 beats per min
same,Mean arterial pressure,canine heart; [13],101 ± 4 mmHg
same,AH time,canine heart; [14],124 ± 8 ms
same,Heart rate,canine heart; [14],147 ± 13 beats per min
same,Mean arterial pressure,canine heart; [14],100 ± 5 mmHg
same,Occurrence of AV conduction block,"canine heart; 0.2 mg/kg i.v., listed as 50R/50S-verapamil, hydrochloride",3 animals
same,AH time,canine heart; [15],101 ± 10 ms
same,Heart rate,canine heart; [15],180 ± 11 beats per min
same,Mean arterial pressure,canine heart; [15],86 ± 8 mmHg
same,AH time,canine heart; [16],112 ± 10 ms
same,Heart rate,canine heart; [16],171 ± 7 beats per min
same,Mean arterial pressure,canine heart; [16],87 ± 8 mmHg
same,AH time,canine heart; [17],116 ± 5 ms
same,Heart rate,canine heart; [17],162 ± 3 beats per min
same,Mean arterial pressure,canine heart; [17],92 ± 7 mmHg
same,AH time,canine heart; [18],117 ± 7 ms
same,Heart rate,canine heart; [18],163 ± 5 beats per min
same,Mean arterial pressure,canine heart; [18],97 ± 6 mmHg
same,AH time,canine heart; [19],119 ± 8 ms
same,Heart rate,canine heart; [19],162 ± 4 beats per min
same,Mean arterial pressure,canine heart; [19],95 ± 8 mmHg
same,AH time,canine heart; [20],113 ± 5 ms
same,Heart rate,canine heart; [20],161 ± 9 beats per min
same,Mean arterial pressure,canine heart; [20],98 ± 6 mmHg
same,Occurrence of second and third degree AV conduction block,"canine heart; 0.4 mg/kg i.v., listed as 50R/50S-verapamil, hydrochloride",7 animals
same,"Peak effect on HR, in words","canine heart; dog, in vivo",drastic increase in HR
same,"QTc interval compared with 100R-verapamil, in words","canine heart; dog, in vivo",significantly increased compared with 100R-verapamil
same,"Interaction between MAP and HR (multiple linear regression), in words",canine heart; increase in HR against drop in MAP,greatest rate of increase in HR as opposed to a drop in MAP
same,"Sinus node recovery time (SNRT), significance",canine heart; paced at 200 beats/min,significant decrease
